Measured values from PubChem BioAssay (NCI).
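Values below derive from 48-hour exposures of cells grown in 96-well plates, with endpoints linearly interpolated between the two concentrations bracketing the appropriate inhibition level. GI50 marks 50% less growth. The concentration for full growth arrest is given as TGI.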

What was measured:
Assay in all cases: DTP human tumour cell line panel, 48 h; in the data active = GI50 below about 0.43 µM; inactive = the rest
HL-60(TB) leukemia = test system: HL-60(TB) leukemia
NCI/ADR-RES ovarian = test system: NCI/ADR-RES ovarian
MALME-3M melanoma = test system: MALME-3M melanoma
T-47D breast = test system: T-47D breast
OVCAR-5 ovarian = test system: OVCAR-5 ovarian
SK-MEL-5 melanoma = test system: SK-MEL-5 melanoma
UO-31 renal = test system: UO-31 renal
NCI-H522 lung = test system: NCI-H522 lung
DU-145 prostate = test system: DU-145 prostate
SK-MEL-2 melanoma = test system: SK-MEL-2 melanoma
SNB-19 CNS = test system: SNB-19 CNS
786-0 renal = test system: 786-0 renal
MCF7 breast = test system: MCF7 breast
HT29 colon = test system: HT29 colon
NCI-H23 lung = test system: NCI-H23 lung
SW-620 colon = test system: SW-620 colon
SR leukemia = test system: SR leukemia
M14 melanoma = test system: M14 melanoma
TK-10 renal = test system: TK-10 renal
HCC-2998 colon = test system: HCC-2998 colon
HCT-15 colon = test system: HCT-15 colon
COLO 205 colon = test system: COLO 205 colon
MDA-MB-231 breast = test system: MDA-MB-231 breast
IGROV1 ovarian = test system: IGROV1 ovarian
UACC-62 melanoma = test system: UACC-62 melanoma
BT-549 breast = test system: BT-549 breast
SK-MEL-28 melanoma = test system: SK-MEL-28 melanoma
SF-268 CNS = test system: SF-268 CNS
SNB-75 CNS = test system: SNB-75 CNS
RPMI-8226 leukemia = test system: RPMI-8226 leukemia
MOLT-4 leukemia = test system: MOLT-4 leukemia
RXF 393 renal = test system: RXF 393 renal
ACHN renal = test system: ACHN renal
A549 NSCLC = test system: A549 NSCLC
CAKI-1 renal = test system: CAKI-1 renal
PC-3 prostate = test system: PC-3 prostate
UACC-257 melanoma = test system: UACC-257 melanoma
OVCAR-4 ovarian = test system: OVCAR-4 ovarian
KM12 colon = test system: KM12 colon
A498 renal = test system: A498 renal
U251 CNS = test system: U251 CNS
LOX IMVI melanoma = test system: LOX IMVI melanoma
HOP-62 NSCLC = test system: HOP-62 NSCLC
CCRF-CEM leukemia = test system: CCRF-CEM leukemia
SN12C renal = test system: SN12C renal
OVCAR-3 ovarian = test system: OVCAR-3 ovarian
OVCAR-8 ovarian = test system: OVCAR-8 ovarian
SF-295 CNS = test system: SF-295 CNS
EKVX NSCLC = test system: EKVX NSCLC
NCI-H226 lung = test system: NCI-H226 lung
HOP-92 NSCLC = test system: HOP-92 NSCLC
NCI-H460 lung = test system: NCI-H460 lung
MDA-MB-435 = test system: MDA-MB-435
SF-539 CNS = test system: SF-539 CNS
SK-OV-3 ovarian = test system: SK-OV-3 ovarian
HCT-116 colon = test system: HCT-116 colon
HS 578T breast = test system: HS 578T breast
K-562 leukemia = test system: K-562 leukemia

O=[N+]([O-])c1cc(F)c2cccnc2c1O
55.6 µM: TGI (UACC-62 melanoma)
24.3 µM: TGI (RPMI-8226 leukemia)
79.7 µM: TGI (ACHN renal)
40.9 µM: TGI (M14 melanoma)
94.6 µM: TGI (786-0 renal)
90.3 µM: TGI (U251 CNS)
42.4 µM: TGI (A498 renal)
18.2 µM: TGI (UO-31 renal)
> 100 µM: TGI (T-47D breast) | TGI (OVCAR-5 ovarian) | TGI (DU-145 prostate) | TGI (SNB-19 CNS) | TGI (NCI-H23 lung) | TGI (SW-620 colon) | TGI (TK-10 renal) | TGI (HCC-2998 colon) | TGI (HCT-15 colon) | TGI (MDA-MB-231 breast) | TGI (BT-549 breast) | TGI (SK-MEL-28 melanoma) | TGI (SF-268 CNS) | TGI (SNB-75 CNS) | TGI (A549 NSCLC) | TGI (PC-3 prostate) | TGI (KM12 colon) | TGI (LOX IMVI melanoma) | TGI (HOP-62 NSCLC) | TGI (SN12C renal) | TGI (OVCAR-3 ovarian) | TGI (OVCAR-8 ovarian) | TGI (EKVX NSCLC) | TGI (NCI-H226 lung) | TGI (MDA-MB-435) | TGI (SF-539 CNS) | TGI (SK-OV-3 ovarian) | TGI (HCT-116 colon) | TGI (HS 578T breast)
6.96 µM: TGI (SR leukemia)
74.9 µM: TGI (MCF7 breast)
45.3 µM: TGI (NCI/ADR-RES ovarian)
11 µM: TGI (MOLT-4 leukemia)
86.6 µM: TGI (SF-295 CNS)
65.5 µM: TGI (OVCAR-4 ovarian)
30.5 µM: TGI (NCI-H460 lung)
26 µM: TGI (NCI-H522 lung)
54.2 µM: TGI (COLO 205 colon)
25.8 µM: TGI (CAKI-1 renal)
20.7 µM: TGI (HT29 colon)
14.7 µM: TGI (IGROV1 ovarian)
73.7 µM: TGI (SK-MEL-5 melanoma)
94.4 µM: TGI (SK-MEL-2 melanoma)
58.8 µM: TGI (UACC-257 melanoma)
76.3 µM: TGI (RXF 393 renal)
9.01 µM: TGI (HOP-92 NSCLC)
8.12 µM: TGI (HL-60(TB) leukemia)
26.7 µM: TGI (CCRF-CEM leukemia)
28.8 µM: TGI (MALME-3M melanoma)
inactive: GI50 (HL-60(TB) leukemia) 2.48 µM | GI50 (NCI/ADR-RES ovarian) 3.61 µM | GI50 (MALME-3M melanoma) 3.89 µM | GI50 (T-47D breast) 21.2 µM | GI50 (OVCAR-5 ovarian) 35.8 µM | GI50 (SK-MEL-5 melanoma) 16.5 µM | GI50 (UO-31 renal) 2.34 µM | GI50 (NCI-H522 lung) 4.01 µM | GI50 (DU-145 prostate) 6.28 µM | GI50 (SK-MEL-2 melanoma) 10.1 µM | GI50 (SNB-19 CNS) 9.24 µM | GI50 (786-0 renal) 10.2 µM | GI50 (MCF7 breast) 17.4 µM | GI50 (HT29 colon) 4.55 µM | GI50 (NCI-H23 lung) 7.73 µM | GI50 (SW-620 colon) 3.44 µM | GI50 (SR leukemia) 1.96 µM | GI50 (M14 melanoma) 7.56 µM | GI50 (TK-10 renal) 14.9 µM | GI50 (HCC-2998 colon) 10.6 µM | GI50 (HCT-15 colon) 6.73 µM | GI50 (COLO 205 colon) 16.2 µM | GI50 (MDA-MB-231 breast) 25.8 µM | GI50 (IGROV1 ovarian) 2.5 µM | GI50 (UACC-62 melanoma) 11 µM | GI50 (BT-549 breast) 19 µM | GI50 (SK-MEL-28 melanoma) 21.2 µM | GI50 (SF-268 CNS) 6.21 µM | GI50 (SNB-75 CNS) 4 µM | GI50 (RPMI-8226 leukemia) 4.05 µM | GI50 (MOLT-4 leukemia) 2.43 µM | GI50 (RXF 393 renal) 17.5 µM | GI50 (ACHN renal) 6.06 µM | GI50 (A549 NSCLC) 6.94 µM | GI50 (CAKI-1 renal) 3.82 µM | GI50 (PC-3 prostate) 4.47 µM | GI50 (UACC-257 melanoma) 15.5 µM | GI50 (OVCAR-4 ovarian) 6.63 µM | GI50 (KM12 colon) 7.95 µM | GI50 (A498 renal) 6.84 µM | GI50 (U251 CNS) 4.9 µM | GI50 (LOX IMVI melanoma) 4.63 µM | GI50 (HOP-62 NSCLC) 13.6 µM | GI50 (CCRF-CEM leukemia) 3.46 µM | GI50 (SN12C renal) 22.1 µM | GI50 (OVCAR-3 ovarian) 3.93 µM | GI50 (OVCAR-8 ovarian) 11.3 µM | GI50 (SF-295 CNS) 3.77 µM | GI50 (EKVX NSCLC) 22.9 µM | GI50 (NCI-H226 lung) 30.5 µM | GI50 (HOP-92 NSCLC) 2.84 µM | GI50 (NCI-H460 lung) 3.83 µM | GI50 (MDA-MB-435) 15 µM | GI50 (SF-539 CNS) 13.6 µM | GI50 (SK-OV-3 ovarian) 26.3 µM | GI50 (HCT-116 colon) 6.93 µM | GI50 (HS 578T breast) 35.8 µM

COc1cccc(C2=C(c3cn(C)c4cccc(OC)c34)C(=O)NC2=O)c1
inactive: GI50 (HL-60(TB) leukemia) 9.75 µM | GI50 (NCI/ADR-RES ovarian) 5.28 µM | GI50 (MALME-3M melanoma) > 16.6 µM | GI50 (T-47D breast) 13.7 µM | GI50 (OVCAR-5 ovarian) > 23.5 µM | GI50 (SK-MEL-5 melanoma) 7.36 µM | GI50 (UO-31 renal) 17.9 µM | GI50 (NCI-H522 lung) 1.67 µM | GI50 (K-562 leukemia) 3.51 µM | GI50 (DU-145 prostate) 10.7 µM | GI50 (SK-MEL-2 melanoma) 7.75 µM | GI50 (SNB-19 CNS) > 25 µM | GI50 (786-0 renal) 17.9 µM | GI50 (MCF7 breast) 6.99 µM | GI50 (HT29 colon) 5.34 µM | GI50 (NCI-H23 lung) 19.6 µM | GI50 (SW-620 colon) 6.89 µM | GI50 (SR leukemia) 2.08 µM | GI50 (M14 melanoma) 7.98 µM | GI50 (TK-10 renal) 15.3 µM | GI50 (HCC-2998 colon) > 25 µM | GI50 (HCT-15 colon) 3.41 µM | GI50 (COLO 205 colon) 6.48 µM | GI50 (MDA-MB-231 breast) 17.9 µM | GI50 (IGROV1 ovarian) 7.49 µM | GI50 (UACC-62 melanoma) 7.17 µM | GI50 (BT-549 breast) 12.9 µM | GI50 (SK-MEL-28 melanoma) > 19.1 µM | GI50 (SF-268 CNS) 16.4 µM | GI50 (SNB-75 CNS) 4.94 µM | GI50 (RPMI-8226 leukemia) 9.09 µM | GI50 (MOLT-4 leukemia) 12.5 µM | GI50 (RXF 393 renal) 5.03 µM | GI50 (ACHN renal) 15.5 µM | GI50 (A549 NSCLC) 11.2 µM | GI50 (CAKI-1 renal) 9.79 µM | GI50 (PC-3 prostate) 8.02 µM | GI50 (UACC-257 melanoma) > 15.9 µM | GI50 (OVCAR-4 ovarian) > 21.3 µM | GI50 (KM12 colon) 6.01 µM | GI50 (A498 renal) 4.9 µM | GI50 (U251 CNS) 11.5 µM | GI50 (LOX IMVI melanoma) 17.1 µM | GI50 (HOP-62 NSCLC) 18.8 µM | GI50 (CCRF-CEM leukemia) 10.4 µM | GI50 (SN12C renal) 15.1 µM | GI50 (OVCAR-3 ovarian) 7.74 µM | GI50 (OVCAR-8 ovarian) 18.5 µM | GI50 (SF-295 CNS) 7.05 µM | GI50 (NCI-H226 lung) > 25 µM | GI50 (HOP-92 NSCLC) 8.89 µM | GI50 (NCI-H460 lung) 8.75 µM | GI50 (MDA-MB-435) 0.832 µM | GI50 (SF-539 CNS) 6.58 µM | GI50 (SK-OV-3 ovarian) 11.6 µM | GI50 (HCT-116 colon) 9.55 µM | GI50 (HS 578T breast) 8.93 µM
> 25 µM: TGI (HL-60(TB) leukemia) | TGI (NCI/ADR-RES ovarian) | TGI (MALME-3M melanoma) | TGI (T-47D breast) | TGI (OVCAR-5 ovarian) | TGI (SK-MEL-5 melanoma) | TGI (UO-31 renal) | TGI (K-562 leukemia) | TGI (DU-145 prostate) | TGI (SK-MEL-2 melanoma) | TGI (SNB-19 CNS) | TGI (786-0 renal) | TGI (MCF7 breast) | TGI (HT29 colon) | TGI (NCI-H23 lung) | TGI (SW-620 colon) | TGI (SR leukemia) | TGI (M14 melanoma) | TGI (TK-10 renal) | TGI (HCC-2998 colon) | TGI (HCT-15 colon) | TGI (MDA-MB-231 breast) | TGI (IGROV1 ovarian) | TGI (UACC-62 melanoma) | TGI (BT-549 breast) | TGI (SK-MEL-28 melanoma) | TGI (SF-268 CNS) | TGI (MOLT-4 leukemia) | TGI (ACHN renal) | TGI (A549 NSCLC) | TGI (CAKI-1 renal) | TGI (PC-3 prostate) | TGI (UACC-257 melanoma) | TGI (OVCAR-4 ovarian) | TGI (KM12 colon) | TGI (A498 renal) | TGI (U251 CNS) | TGI (LOX IMVI melanoma) | TGI (HOP-62 NSCLC) | TGI (CCRF-CEM leukemia) | TGI (SN12C renal) | TGI (OVCAR-3 ovarian) | TGI (OVCAR-8 ovarian) | TGI (SF-295 CNS) | TGI (NCI-H226 lung) | TGI (HOP-92 NSCLC) | TGI (NCI-H460 lung) | TGI (SK-OV-3 ovarian) | TGI (HCT-116 colon) | TGI (HS 578T breast)
24.5 µM: TGI (SNB-75 CNS)
> 19 µM: TGI (RXF 393 renal)
> 9.17 µM: TGI (MDA-MB-435)
> 19.7 µM: TGI (NCI-H522 lung)
18.6 µM: TGI (SF-539 CNS)
> 20.3 µM: TGI (COLO 205 colon)
> 24.1 µM: TGI (RPMI-8226 leukemia)
